# Data from US20160158200A1, “Combinations of Hepatitis C Virus Inhibitors” (priority 2013, published 2016).
# Test system: HCV genotype-1a variant with glutamine 30 changed to glutamate in the NS5A protein
# Assay type: cell-based
# Details: test compound titrated with BMS-790052 fixed at 200 nM; genotype 1a Q30E replicon
# From the text: The NS5A synergistic inhibitory effect of test compounds can be determined using various amounts of an NS5A-targeting compound with titration of a second compound of interest. […] In one embodiment, the HCV genotype strain can be genotype 1a containing a change at amino acid 30 of the NS5A protein consisting of glutamine to glutamate. The test compound can be chosen from compounds listed above or from others present in the literature.
row,Structure (SMILES),Fold-Synergistic 1a (Q30E) [fold]
1,O=C(N1CCC(F)(F)CC1)N1CCC[C@H]1c1ncc(-c2ccc(-c3ccc(-c4cnc([C@@H]5CCCN5C(=O)N5CCC(F)(F)CC5)[nH]4)cc3)cc2)[nH]1 [Compound P-131],>100
2,CC(C)(C)[C@H](N)c1nc(-c2ccc(-c3ccc(-c4c[nH]c([C@@H](Nc5ncc(Br)cn5)C(C)(C)C)n4)cc3)cc2)c[nH]1 [Compound W-16B],<10
3,COc1ccc(C(=O)N[C@H](c2ncc(-c3ccc(-c4ccc(-c5cnc([C@@H](NC(=O)c6ccc(OC)c(OC)c6)C(C)C)[nH]5)cc4)cc3)[nH]2)C(C)C)cc1OC [Compound S-78],>100
4,CC(C)C(NC(=O)C(=O)N1CCC(C(F)(F)F)CC1)c1nc(-c2ccc(-c3ccc(-c4c[nH]c(C(NC(=O)C(=O)N5CCC(C(F)(F)F)CC5)C(C)C)n4)cc3)cc2)c[nH]1 (stereo not shown) [Compound W-53],>100
5,CC1(C)C[C@@H](C(=O)N[C@H](c2nc(-c3ccc(-c4ccc(-c5c[nH]c([C@@H](NC(=O)[C@@H]6CC(C)(C)CN6C(=O)OC(C)(C)C)C(C)(C)C)n5)cc4)cc3)c[nH]2)C(C)(C)C)N(C(=O)OC(C)(C)C)C1 [Compound W-93],>100
6,CC1(C(=O)NC(c2nc(-c3ccc(-c4ccc(-c5c[nH]c(C(NC(=O)C6(C)CC(F)(F)CCO6)C(C)(C)C)n5)cc4)cc3)c[nH]2)C(C)(C)C)CC(F)(F)CCO1 (stereo not shown) [Compound Y-75],>100
7,CC(C)[C@H](NC(=O)C(c1ccccc1)c1ccccc1)c1ncc(-c2ccc(-c3ccc(-c4cnc([C@@H](NC(=O)C(c5ccccc5)c5ccccc5)C(C)C)[nH]4)cc3)cc2)[nH]1 [Compound S-12],>100
8,Cc1ccc(S(=O)(=O)NC(c2nc(-c3ccc(-c4ccc(-c5c[nH]c(C(NS(=O)(=O)c6ccc(C)cc6)C(C)(C)C)n5)cc4)cc3)c[nH]2)C(C)(C)C)cc1 [Compound L-117],>100
9,"CC(C)(C(=O)N[C@H](c1nc(-c2ccc(-c3ccc(-c4c[nH]c([C@@H](NC(=O)C(C)(C)C(O)c5ccccc5F)C(C)(C)C)n4)cc3)cc2)c[nH]1)C(C)(C)C)C(O)c1ccccc1F (single isomer, unassigned) [Compound N-124C]",>100
10,CC(C)(C)[C@H](NC(=O)C1(NC(=O)C(F)(F)F)CCCCC1)c1nc(-c2ccc(-c3ccc(-c4c[nH]c([C@@H](NC(=O)C5(NC(=O)C(F)(F)F)CCCCC5)C(C)(C)C)n4)cc3)cc2)c[nH]1.O=C(O)C(F)(F)F.O=C(O)C(F)(F)F [Compound W-269],>100
11,"COC(C)(COCc1ccccc1)C(=O)N[C@H](c1nc(-c2ccc(-c3ccc(-c4c[nH]c([C@@H](NC(=O)C(C)(COCc5ccccc5)OC)C(C)(C)C)n4)cc3)cc2)c[nH]1)C(C)(C)C.O=C(O)C(F)(F)F.O=C(O)C(F)(F)F (single isomer, unassigned) [Compound W-231]",>100
12,COC1(C(=O)N[C@H](c2nc(-c3ccc(-c4ccc(-c5c[nH]c([C@@H](NC(=O)C6(OC)CCC6)C(C)(C)C)n5)cc4)cc3)c[nH]2)C(C)(C)C)CCC1 [Compound P-21],>100
13,CC(C)[C@H](N[S@@+]([O-])C(C)(C)C)c1ncc(-c2ccc(-c3ccc(-c4cnc([C@@H](N[S@+]([O-])C(C)(C)C)C(C)C)[nH]4)cc3)cc2)[nH]1 [Compound Y-60],>100
14,CC(C)[C@H](NC(=O)CC#N)c1ncc(-c2ccc(-c3ccc(-c4cnc([C@@H](NC(=O)CC#N)C(C)C)[nH]4)cc3)cc2)[nH]1 [Compound S-29],>100
15,CC(C)(C)[C@H](NC(=O)C1CC2CCC(C1)C2(F)F)c1nc(-c2ccc(-c3ccc(-c4c[nH]c([C@@H](NC(=O)C5CC6CCC(C5)C6(F)F)C(C)(C)C)n4)cc3)cc2)c[nH]1 (stereo partly shown) [Compound P-44],>100
16,CC(C)[C@H](NC(=O)c1cc(Cl)cc(Cl)c1)c1ncc(-c2ccc(-c3ccc(-c4cnc([C@@H](NC(=O)c5cc(Cl)cc(Cl)c5)C(C)C)[nH]4)cc3)cc2)[nH]1 [Compound S-76],>100
